From the supplement of paper PMC11208160
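Note: IS621 bridge recombinase in Escherichia coli cells against a fixed T5 target plasmid.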

Assay: recombinant UMI read abundance after kanamycin selection (control-corrected) (log10(CPM+1)); higher = more efficient recombination; extreme values may be limits of the assay; sequences stand for … in AGTGCAGAGAAAATCGGCCAGTTTTCTCTGCCTGCAGTCCGCATGCCGTGGGACCCCTTGGGTTCTAACCTGTTGCCTAGATTTATGCAGCGGACTGCCTTTCTCCCAAAGTGATAAACCGG…AGGTTGGTTTCACT; site = the 11-nt donor
Outline: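 After plating on IPTG (0.07 mM) plus kanamycin, or unselected, in two replicates, recombinant UMIs were PCR-amplified across the donor–target junction and sequenced. The cells were Escherichia coli co-electroporated with a UMI-tagged donor and donor-binding-loop pair library and a target plasmid with a fixed target and T7-inducible IS621 bridge recombinase. Values are log10(CPM+1), with CPM averaged over replicates and scaled by control-derived factors.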
With “CCAGGGCCATGGACCGGTTTTCCCGGTAATCCGTATTTGTG (site CCAGGGCCTCA)” the “recombinant UMI read abundance (log10)” value was 0.00753.
In the case of “CCAGGTCCATGGACCGGTTTTCCCGGTAATCCGTATTTGAT (site CCAGGTACTAT)”, the “recombinant UMI read abundance (log10)” value is reported as 0.
For “CCAGGTCCATGGACCGGTTTTCCCGGTAATCCGTATTTGAT (site CCAGGTCCTAT)”, the “recombinant UMI read abundance (log10)” value was 0.341.
For “CCAGGTCCATGGACCGGTTTTCCCGGTAATCCGTATTTGAT (site CCAGGTGCTAT)”, the “recombinant UMI read abundance (log10)” value was 0.
With “CCAGGTCCATGGACCGGTTTTCCCGGTAATCCGTATTTGAT (site CCAGGTTCTAT)” the “recombinant UMI read abundance (log10)” value was 0.
With “CCAGGTGCATGGACCGGTTTTCCCGGTAATCCGTATTTGAA (site CCAGGTGCTAT)” the “recombinant UMI read abundance (log10)” value was 0.00736.
In the case of “CCAGGTGCATGGACCGGTTTTCCCGGTAATCCGTATTTGAA (site CCAGGTGCTCT)”, the “recombinant UMI read abundance (log10)” value is reported as 0.218.
In the case of “CCAGGTGCATGGACCGGTTTTCCCGGTAATCCGTATTTGAA (site CCAGGTGCTGT)”, the “recombinant UMI read abundance (log10)” value is reported as 0.
With “CCAGGTGCATGGACCGGTTTTCCCGGTAATCCGTATTTGAA (site CCAGGTGCTTT)” the “recombinant UMI read abundance (log10)” value was 1.73.
In the case of “CCAGGTGCATGGACCGGTTTTCCCGGTAATCCGTATTTGAC (site CCAGGTGCTAT)”, the “recombinant UMI read abundance (log10)” value is reported as 0.0299.
With “CCAGGTGCATGGACCGGTTTTCCCGGTAATCCGTATTTGAC (site CCAGGTGCTCT)” the “recombinant UMI read abundance (log10)” value was 0.00976.
For “CCAGGTGCATGGACCGGTTTTCCCGGTAATCCGTATTTGAC (site CCAGGTGCTGT)”, the “recombinant UMI read abundance (log10)” value was 0.637.
With “CCAGGTGCATGGACCGGTTTTCCCGGTAATCCGTATTTGAC (site CCAGGTGCTTT)” the “recombinant UMI read abundance (log10)” value was 0.00791.
In the case of “CCAGGTGCATGGACCGGTTTTCCCGGTAATCCGTATTTGGT (site CCAGGTGCTAA)”, the “recombinant UMI read abundance (log10)” value is reported as 0.0181.
In the case of “CCAGGTGCATGGACCGGTTTTCCCGGTAATCCGTATTTGGT (site CCAGGTGCTAC)”, the “recombinant UMI read abundance (log10)” value is reported as 0.188.
For “CCAGGTGCATGGACCGGTTTTCCCGGTAATCCGTATTTGGT (site CCAGGTGCTAG)”, the “recombinant UMI read abundance (log10)” value was 0.
With “CCAGGTGCATGGACCGGTTTTCCCGGTAATCCGTATTTGGT (site CCAGGTGCTAT)” the “recombinant UMI read abundance (log10)” value was 0.541.
For “CCAGTAGCATGGACCGGTTTTCCCGGTAATCCGTATTTGAC (site CCAGTAGCTGT)”, the “recombinant UMI read abundance (log10)” value was 2.06.
For “CCAGTAGCATGGACCGGTTTTCCCGGTAATCCGTATTTGAC (site CTAGTATCTGT)”, the “recombinant UMI read abundance (log10)” value was 0.
For “CCAGTATCATGGACCGGTTTTCCCGGTAATCCGTATTTGCA (site ACAGTATCTTG)”, the “recombinant UMI read abundance (log10)” value was 1.07.
In the case of “CCAGTATCATGGACCGGTTTTCCCGGTAATCCGTATTTGCA (site CCAGTATCTTG)”, the “recombinant UMI read abundance (log10)” value is reported as 2.21.
For “CCAGTATCATGGACCGGTTTTCCCGGTAATCCGTATTTGCA (site GCAGTATCTTG)”, the “recombinant UMI read abundance (log10)” value was 0.
For “CCAGTATCATGGACCGGTTTTCCCGGTAATCCGTATTTGCA (site TCAGTATCTTG)”, the “recombinant UMI read abundance (log10)” value was 0.
With “CCAGTGACATGGACCGGTTTTCCCGGTAATCCGTATTTGGT (site CCAGTGACTAC)” the “recombinant UMI read abundance (log10)” value was 0.
With “CCATATGCATGGACCGGTTTTCCCGGTAATCCGTATTTGGC (site CCATATGCTGC)” the “recombinant UMI read abundance (log10)” value was 0.0195.
In the case of “CCATCGCCATGGACCGGTTTTCCCGGTAATCCGTATTTGGA (site CCATCGCCTTC)”, the “recombinant UMI read abundance (log10)” value is reported as 0.0195.
For “CCATGGTCATGGACCGGTTTTCCCGGTAATCCGTATTTGTT (site CCATGGTCTAA)”, the “recombinant UMI read abundance (log10)” value was 1.06.
In the case of “CCATTATCATGGACCGGTTTTCCCGGTAATCCGTATTTGCA (site ACAGTATCTTG)”, the “recombinant UMI read abundance (log10)” value is reported as 0.
In the case of “CCATTATCATGGACCGGTTTTCCCGGTAATCCGTATTTGCA (site CCATTATCTTG)”, the “recombinant UMI read abundance (log10)” value is reported as 0.785.
For “CCATTCCCATGGACCGGTTTTCCCGGTAATCCGTATTTGCT (site CAATTCCCTAG)”, the “recombinant UMI read abundance (log10)” value was 0.
For “CCATTCCCATGGACCGGTTTTCCCGGTAATCCGTATTTGCT (site CCATTCCCTAG)”, the “recombinant UMI read abundance (log10)” value was 0.
In the case of “CCATTCCCATGGACCGGTTTTCCCGGTAATCCGTATTTGCT (site CGATTCCCTAG)”, the “recombinant UMI read abundance (log10)” value is reported as 0.
In the case of “CCATTCCCATGGACCGGTTTTCCCGGTAATCCGTATTTGCT (site CTATTCCCTAG)”, the “recombinant UMI read abundance (log10)” value is reported as 0.
For “CCATTCTCATGGACCGGTTTTCCCGGTAATCCGTATTTGTA (site CCATTCTCTTA)”, the “recombinant UMI read abundance (log10)” value was 0.451.
In the case of “CCCAACACATGGACCGGTTTTCCCGGTAATCCGTATTTGTA (site CCCAACACTTA)”, the “recombinant UMI read abundance (log10)” value is reported as 1.35.
With “CCCAACACATGGACCGGTTTTCCCGGTAATCCGTATTTGTA (site CCCCACACTTA)” the “recombinant UMI read abundance (log10)” value was 0.0125.
With “CCCAACACATGGACCGGTTTTCCCGGTAATCCGTATTTGTA (site CCCGACACTTA)” the “recombinant UMI read abundance (log10)” value was 0.0265.
With “CCCAACACATGGACCGGTTTTCCCGGTAATCCGTATTTGTA (site CCCTACACTTA)” the “recombinant UMI read abundance (log10)” value was 0.00893.
In the case of “CCCAACCCATGGACCGGTTTTCCCGGTAATCCGTATTTGAT (site CCCAACCCTAT)”, the “recombinant UMI read abundance (log10)” value is reported as 0.00723.
With “CCCAAGTCATGGACCGGTTTTCCCGGTAATCCGTATTTGGG (site CCCAAGTCTCC)” the “recombinant UMI read abundance (log10)” value was 2.38.
With “CCCAATTCATGGACCGGTTTTCCCGGTAATCCGTATTTGCC (site ACCAATTCTGG)” the “recombinant UMI read abundance (log10)” value was 0.
With “CCCAATTCATGGACCGGTTTTCCCGGTAATCCGTATTTGCC (site CCCAATTCTGG)” the “recombinant UMI read abundance (log10)” value was 0.628.
With “CCCAATTCATGGACCGGTTTTCCCGGTAATCCGTATTTGCC (site GCCAATTCTGG)” the “recombinant UMI read abundance (log10)” value was 0.
For “CCCAATTCATGGACCGGTTTTCCCGGTAATCCGTATTTGCC (site TCCAATTCTGG)”, the “recombinant UMI read abundance (log10)” value was 0.
In the case of “CCCACCGCATGGACCGGTTTTCCCGGTAATCCGTATTTGCG (site ACCACCGCTCG)”, the “recombinant UMI read abundance (log10)” value is reported as 0.0127.
For “CCCACCGCATGGACCGGTTTTCCCGGTAATCCGTATTTGCG (site CCCACCGCTCG)”, the “recombinant UMI read abundance (log10)” value was 0.00466.
In the case of “CCCACCGCATGGACCGGTTTTCCCGGTAATCCGTATTTGCG (site GCCACCGCTCG)”, the “recombinant UMI read abundance (log10)” value is reported as 0.0563.
For “CCCACCGCATGGACCGGTTTTCCCGGTAATCCGTATTTGCG (site TCCACCGCTCG)”, the “recombinant UMI read abundance (log10)” value was 0.00493.
For “CCCACGCCATGGACCGGTTTTCCCGGTAATCCGTATTTGTA (site ACCACGCCTTA)”, the “recombinant UMI read abundance (log10)” value was 0.00406.
With “CCCACGCCATGGACCGGTTTTCCCGGTAATCCGTATTTGTA (site CCCACGCCTTA)” the “recombinant UMI read abundance (log10)” value was 0.00594.
For “CCCACGCCATGGACCGGTTTTCCCGGTAATCCGTATTTGTA (site GCCACGCCTTA)”, the “recombinant UMI read abundance (log10)” value was 0.00718.
For “CCCACGCCATGGACCGGTTTTCCCGGTAATCCGTATTTGTA (site TCCACGCCTTA)”, the “recombinant UMI read abundance (log10)” value was 0.0141.
For “CCCAGATCATGGACCGGTTTTCCCGGTAATCCGTATTTGTC (site CCCAAATCTGA)”, the “recombinant UMI read abundance (log10)” value was 0.
With “CCCAGATCATGGACCGGTTTTCCCGGTAATCCGTATTTGTC (site CCCACATCTGA)” the “recombinant UMI read abundance (log10)” value was 0.
With “CCCAGATCATGGACCGGTTTTCCCGGTAATCCGTATTTGTC (site CCCAGATCTGA)” the “recombinant UMI read abundance (log10)” value was 0.
In the case of “CCCAGATCATGGACCGGTTTTCCCGGTAATCCGTATTTGTC (site CCCATATCTGA)”, the “recombinant UMI read abundance (log10)” value is reported as 0.
For “CCCATAACATGGACCGGTTTTCCCGGTAATCCGTATTTGTC (site CCCATAACTGA)”, the “recombinant UMI read abundance (log10)” value was 0.
For “CCCATAACATGGACCGGTTTTCCCGGTAATCCGTATTTGTC (site CCCATACCTGA)”, the “recombinant UMI read abundance (log10)” value was 0.
In the case of “CCCATAACATGGACCGGTTTTCCCGGTAATCCGTATTTGTC (site CCCATAGCTGA)”, the “recombinant UMI read abundance (log10)” value is reported as 0.
With “CCCATAACATGGACCGGTTTTCCCGGTAATCCGTATTTGTC (site CCCATATCTGA)” the “recombinant UMI read abundance (log10)” value was 0.
For “CCCATACCATGGACCGGTTTTCCCGGTAATCCGTATTTGTC (site CCCATAACTGA)”, the “recombinant UMI read abundance (log10)” value was 0.
For “CCCATACCATGGACCGGTTTTCCCGGTAATCCGTATTTGTC (site CCCATACCTGA)”, the “recombinant UMI read abundance (log10)” value was 0.
With “CCCATACCATGGACCGGTTTTCCCGGTAATCCGTATTTGTC (site CCCATAGCTGA)” the “recombinant UMI read abundance (log10)” value was 0.
In the case of “CCCATACCATGGACCGGTTTTCCCGGTAATCCGTATTTGTC (site CCCATATCTGA)”, the “recombinant UMI read abundance (log10)” value is reported as 0.
In the case of “CCCATATCATGGACCGGTTTTCCCGGTAATCCGTATTTGAC (site CCCATATCTGA)”, the “recombinant UMI read abundance (log10)” value is reported as 0.
With “CCCATATCATGGACCGGTTTTCCCGGTAATCCGTATTTGAC (site CCCATATCTGC)” the “recombinant UMI read abundance (log10)” value was 0.
With “CCCATATCATGGACCGGTTTTCCCGGTAATCCGTATTTGAC (site CCCATATCTGG)” the “recombinant UMI read abundance (log10)” value was 0.
With “CCCATATCATGGACCGGTTTTCCCGGTAATCCGTATTTGAC (site CCCATATCTGT)” the “recombinant UMI read abundance (log10)” value was 0.446.
